This assay concerns the target 15-PGDH (Homo sapiens (Human), UniProt P15428). Put plainly: Assay for the activities of 15-PGDH inhibitors (formation of NADH at 340 nm). In kind it is biochemical. Conditions: purified 15-PGDH enzyme, 21 μM PGE2, 0.25 mM NAD+, pH 7.5; concentration inhibiting 50% of 15-PGDH activity. The protocol:
<1-1> Expression and Purification of 15-PGDH
A 15-PGDH cDNA plasmid containing BamHI and EcoRI sites of the pGES-2T expression vector was used to transform Escherichia coli BL-21 lysS in accordance with the ordinarily used in the art. The transformed cells were grown in 500 mL LB medium containing 50 μg/mL ampicillin at 37° C. while being stirred at 220 rpm until the OD600 reached 0.6. Isopropyl β-D-thiogalactoside (1 mM) was added and the cells were allowed to grow for 12 hours at 25° C. Then, the pellets were harvested by centrifugation at 4000×g for 30 minutes at 4° C. The cell pallets were resuspended in 20 mL cell lysis buffer (1×PBS buffer (pH 7.4) containing 1 mM EDTA and 0.1 mM DTT) and sonicated (14×10 s at 4° C.). The disrupted cells were centrifuged at 4000×g for 20 minutes at 4° C. The supernatant was loaded slowly on a glutathione-sepharose 4B column, which was equilibrated at 4° C. with a cell lysis buffer (1×PBS buffer (pH 7.4) containing 1 mM EDTA and 0.1 mM DTT). The column was washed with the lysis buffer until OD280 reached below 0.005. Then, 15-PGDH was eluted from the glutathione-sepharose 4B column at room temperature for 5 minutes by using the elution buffer (50 mM Tris-HCl (pH 8.0) containing 10 mM reduced glutathione, 1 mM EDTA and 0.1 mM DTT). The concentration and the purity of the purified enzyme were determined by SDS-PAGE.
<1-2> Assay for the Activities of 15-PGDH Inhibitors
The absorbance of the reaction mixture was recorded at 340 nm so that the activities of the derivatives according to the present invention as 15-PGDH inhibitors were determined from a standard curve prepared from the absorbance of various concentrations of NADH at 340 nm.

The values below come from patent US8637558B2 (Industry-Academic Cooperation Foundation, Chosun University, priority 2008, dated 2014).

pIC50: −log10 of the molar value.

One may read the pIC50 as −log10 of the IC50, conventionally taken in molar units. A lower pIC50 goes with a high IC50.

Chain of 15-PGDH (P15428 whole entry): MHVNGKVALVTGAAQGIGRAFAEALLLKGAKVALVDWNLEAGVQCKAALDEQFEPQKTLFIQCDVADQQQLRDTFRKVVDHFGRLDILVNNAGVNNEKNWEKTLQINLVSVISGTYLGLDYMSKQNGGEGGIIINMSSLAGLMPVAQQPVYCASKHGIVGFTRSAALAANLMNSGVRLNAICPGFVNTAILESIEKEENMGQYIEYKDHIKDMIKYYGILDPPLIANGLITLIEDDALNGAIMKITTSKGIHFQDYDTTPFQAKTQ

On to `CC1(COc2ccc(/C=C3\SC(=O)NC3=O)cc2)CCCCC1` [Derivative 43, 5-(4-((1-methylcyclohexyl)methoxy)benzylidene)thiazolidine-2,4-dione], for which the pIC50 is 6.26.

The molecule `O=C1NC(=O)/C(=C/c2ccc(OCc3ccccc3)cc2)S1` [Derivative 44, 5-(4-(benzyloxy)benzylidene)thiazolidine-2,4-dione] gave a pIC50 of 5.98.

On to `O=C1NC(=O)/C(=C/c2ccc(OC3CCCCC3)cc2)S1` [Derivative 45, 5-(4-(cyclohexyloxy)benzylidene)thiazolidine-2,4-dione], for which the pIC50 was 6.09.

As for `O=C1NC(=O)/C(=C/c2ccc(OCCC3CCCCC3)cc2)S1` [Derivative 46, 5-(4-(2-cyclohexylethoxy)benzylidene)thiazolidine-2,4-dione], the pIC50 is 7.29.

`O=C1NC(=O)/C(=C/c2ccc(OCCC3CCCCC3)c([N+](=O)[O-])c2)S1` [Derivative 49, 5-(4-(2-cyclohexylethoxy)-3-nitrobenzylidene)thiazolidine-2,4-dione]: the negative-log IC50 (pIC50) is 7.23.

The molecule `Nc1cc(/C=C2\SC(=O)NC2=O)ccc1OCCC1CCCCC1` [Derivative 50, 5-(3-amino-4-(2-cyclohexylethoxy)benzylidene)thiazolidine-2,4-dione] gave a pIC50 of 6.54. Compared with the last molecule, the pIC50 is 0.69 log units lower.

Regarding `Cc1cc(/C=C2\SC(=O)NC2=O)ccc1OCC1CCCCC1` [Derivative 51, 5-(4-(2-cyclohexylmethoxy)-3-methylbenzylidene)thiazolidine-2,4-dione], the pIC50 is 7.30.

For the molecule `O=C1NC(=O)/C(=C/c2ccc(Oc3ccccc3)cc2)S1` [Derivative 54, 5-(4-phenoxybenzylidene)-1,3-thiazolidine-2,4-dione], the pIC50 was less than 4.70.

With `O=C1NC(=O)/C(=C/c2ccc(OCCc3ccccc3)cc2)S1` [Derivative 55, 5-[4-(2-phenylethoxy)benzylidene]-1,3-thiazolidine-2,4-dione], the pIC50 is 6.93.

Molecule `CCOc1cc(/C=C2\SC(=O)NC2=O)ccc1OCCC1CCCCC1` [Derivative 59, 5-(4-(2-cyclohexylethoxy)-3-ethoxybenzylidene)thiazolidine-2,4-dione] showed a pIC50 of 6.59.

The molecule `COc1cc(OCCC2CCCCC2)ccc1/C=C1\SC(=O)NC1=O` [Derivative 60, 5-(4-(2-cyclohexylethoxy)-2-methoxybenzylidene)thiazolidine-2,4-dione] gave a pIC50 of 5.45.

Molecule `O=C1NC(=O)/C(=C/c2ccc(OCC3COc4ccccc4O3)cc2)S1` (centres unmarked) [Derivative 62, 5-(4-((2,3-Dihydrobenzo[b][1,4]dioxin-2-yl)methoxy)benzylidene) thiazolidine-2,4-dione] had a pIC50 of 6.76.

`O=C1NC(=O)/C(=C/c2cccc(OCC3CCCCC3)c2Cl)S1` [Derivative 63, 5-(2-chloro-3-(cyclohexylmethoxy)benzylidene)thiazolidine-2,4-dione] showed a pIC50 of 7.24.

In turn, `O=C1NC(=O)/C(=C/c2cccc(OCCCC3CCCCC3)c2Cl)S1` [Derivative 64, 5-(2-chloro-3-(cyclohexylpropoxy)benzylidene)thiazolidine-2,4-dione] gave a pIC50 of 7.23. The pIC50 values of the last two molecules are within 0.2 log units of each other.

`CC1CCC(COc2ccc(/C=C3\SC(=O)NC3=O)cc2C(F)(F)F)CC1` (centres unmarked) [Derivative 65, 5-[4-((4-methylcyclohexyl)methoxy)-3-(trifluoromethyl)benzylidene]thiazolidine-2,4-dione] gave a pIC50 of 7.50.

Turning to `COC(=O)C1CCC(COc2ccc(/C=C3\SC(=O)NC3=O)cc2)CC1` (centres unmarked) [Derivative 66, methyl-4-((4-((2,4-dioxothiazolidine-5-ylidene)methyl)phenoxy)methyl)cyclohexane carboxylate], the pIC50 is 7.69.

For the molecule `COc1ccc(/C=C2\SC(=O)NC2=O)cc1OCCC1CCCCC1` [Derivative 67, 5-(3-(2-cyclohexylethoxy)-4-methoxybenzylidene)thiazolidine-2,4-dione], the pIC50 is 5.94.

With `O=C1NC(=O)/C(=C/c2ccc(OCCc3ccccc3)c(Cl)c2)S1` [Derivative 69, 5-(3-chloro-4-phenylethoxybenzylidene)thiazolidine-2,4-dione], the pIC50 is 7.70.

`O=C1NC(=O)/C(=C/c2ccc(OCCCc3ccccc3)c(Cl)c2)S1` [Derivative 70, 5-(3-chloro-4-(3-phenylpropoxy)benzylidene)thiazolidine-2,4-dione] gave a negative logarithm of the IC50 (pIC50) of 7.42.

`O=C1NC(=O)/C(=C/c2cccc(OCCc3ccccc3)c2Cl)S1` [Derivative 73, 5-(2-chloro-3-phenylethoxybenzylidene)thiazolidine-2,4-dione] had a pIC50 of 6.91. This pIC50 is 0.51 log units lower than that of the molecule before.

In the case of `O=C1NC(=O)/C(=C/c2cccc(OCCCc3ccccc3)c2Cl)S1` [Derivative 75, 5-(2-chloro-3-(3-phenylpropoxy)benzylidene)thiazolidine-2,4-dione], the pIC50 was 7.35.

Molecule `O=C1NC(=O)/C(=C/c2ccc(OCc3ccc(-c4ccccc4)cc3)cc2)S1` [Derivative 76, 5-(4-(biphenyl-4-ylmethoxy)benzylidene)thiazolidine-2,4-dione] gave a negative-log IC50 (pIC50) of 6.09.

As to `O=C1NC(=O)/C(=C/c2cc(F)c(OCCC3CCCCC3)c(Cl)c2)S1` [Derivative 77, 5-(3-chloro-5-fluoro-4-(2-cyclohexylethoxy)benzylidene)thiazolidine-2,4-dione], the pIC50 is 6.75.

The molecule `COc1cc(/C=C2\SC(=O)NC2=O)cc(Cl)c1OCCC1CCCCC1` [Derivative 78, 5-(3-chloro-4-(2-cyclohexylethoxy)-5-methoxybenzylidene) thiazolidine-2,4-dione] had a pIC50 of 7.30. This pIC50 is 0.55 log units higher than that of the molecule before.

With `O=C1NC(=O)/C(=C/c2ccc([N+](=O)[O-])c(OCCC3CCCCC3)c2)S1` [Derivative 79, 5-(3-(2-cyclohexylethoxy)-4-nitrobenzylidene)thiazolidine-2,4-dione], the pIC50 is 5.55.

Turning to `COc1ccc(/C=C2\SC(=O)NC2=O)c(Cl)c1OCCC1CCCCC1` [Derivative 80, 5-(2-chloro-3-(2-cyclohexylethoxy)-4-methoxybenzylidene) thiazolidine-2,4-dione], the pIC50 is 6.96.

On to `O=C1NC(=O)/C(=C/c2ccc(OCCC3CCCCC3)cc2C(F)(F)F)S1` [Derivative 81, 5-(4-(2-cyclohexylethoxy)-2-(trifluoromethyl)benzylidene)thiazolidine-2,4-dione], for which the negative logarithm of the IC50 (pIC50) was 6.86.

`O=C1NC(=O)/C(=C/c2cc(OCCC3CCCCC3)ccc2[N+](=O)[O-])S1` [Derivative 83, 5-(5-(2-cyclohexylethoxy)-2-nitrobenzylidene)thiazolidine-2,4-dione] had a pIC50 of 5.20. This pIC50 lies 1.66 log units lower than the previous one.

Take `O=C1NC(=O)/C(=C/c2ccc(OCc3ccccc3)cc2Cl)S1` [Derivative 85, 5-(4-(benzyloxy)-2-chlorobenzylidene)thiazolidine-2,4-dione]: the pIC50 was 6.31.

Regarding `O=C1NC(=O)/C(=C/c2ccc(OCCc3ccccc3)cc2Cl)S1` [Derivative 86, 5-(2-chloro-4-phenylethoxybenzylidene)thiazolidine-2,4-dione], the pIC50 is 6.75.

Turning to `O=C1NC(=O)/C(=C/c2ccc(OCCCc3ccccc3)cc2Cl)S1` [Derivative 87, 5-(2-chloro-4-phenylpropoxybenzylidene)thiazolidine-2,4-dione], the negative-log IC50 (pIC50) was 7.28.

For `O=C1NC(=O)/C(=C/c2ccc(OCCN3CCS(=O)(=O)CC3)c([N+](=O)[O-])c2)S1` [Derivative 90, 5-[3-nitro-4-(2-thiomorpholine1,1-Dioxideethoxy)benzylidene]-2,4-thiazolidinedione], the pIC50 was 5.61. This pIC50 lies 1.67 log units lower than the previous one.

Regarding `CC1CCC(COc2cccc(/C=C3\SC(=O)NC3=O)c2Cl)CC1` (centres unmarked) [Derivative 91, 5-{2-chloro-3-[(4-methylcyclohexyl)methoxy]benzylidene}-1,3-thiazolidine-2,4-dione], the pIC50 is 6.87.

`O=C1NC(=O)/C(=C/c2cccc(OCCc3ccccn3)c2Cl)S1` [Derivative 93] had a pIC50 of 4.99.

`CC(C)OCCOc1ccc(/C=C2\SC(=O)NC2=O)cc1Cl` [Derivative 94, 5-{3-chloro-4-[2-(propan-2-yloxy)ethoxy]benzylidene}-1,3-thiazolidine-2,4-dione] had a pIC50 of 5.56.

On to `O=C1NC(=O)/C(=C/c2ccc(OC3CCCCC3)cc2Cl)S1` [Derivative 95, 5-(2-chloro-4-(cyclohexyloxy)benzylidene)thiazolidine-2,4-dione], for which the pIC50 was 6.63. This pIC50 is 1.07 log units higher than that of the molecule before.

For `O=C1NC(=O)/C(=C/c2ccc(OCC3CCCCC3)cc2Cl)S1` [Derivative 96, 5-(2-chloro-4-(3-cyclohexylmethoxy)benzylidene)thiazolidine-2,4-dione], the pIC50 was 5.61.

`O=C1NC(=O)/C(=C/c2ccc(OCCCC3CCCCC3)cc2Cl)S1` [Derivative 97, 5-(2-chloro-4-(3-cyclohexylpropoxy)benzylidene)thiazolidine-2,4-dione] gave a pIC50 of 6.55.
